Laboratory results from BindingDB's records for doi:10.1016/j.bioorg.2015.02.002 (Bezmialem Vakif University, 2015).

Experiments:
[1] = molecular target: Acetylcholinesterase (Electrophorus electricus, UniProt O42275); experiment: Anticholinesterase Activity Assays; details: pH 8
Procedure: (§1) The substrates of the reaction were acetylthiocholine iodide and butyrylthiocholine iodide. 5,5'-dithio-bis(2-nitrobenzoic) acid (DTNB) was used for the measurement of the anticholinesterase activity. The solutions of the samples and galantamine in n-propanol were prepared at concentration of 4000 µg/mL. […] 10 µL of DTNB solution was prepared by adding 2.0 mL of pH 7.0 and 4.0 mL of pH 8.0 phosphate buffers to a mixture of 1.0 mL of 16 mg/mL DTNB and 7.5 mg/mL NaHCO3 in pH 7.0 phosphate buffers. The reaction was initiated by the addition of 10 µL (7.1 mM) acetylthiocholine iodide (or 0.79 mM butyrylthiocholine iodide). Propyl alcohol was used as a solvent to controls. The hydrolysis of these substrates was monitored at 412 nm.

[2] = molecular target: Carboxylic ester hydrolase (Equus caballus, UniProt Q9N1N9); experiment: Anticholinesterase Activity Assays; details: pH 8
Procedure: as §1

Chain of Acetylcholinesterase (O42275 whole entry): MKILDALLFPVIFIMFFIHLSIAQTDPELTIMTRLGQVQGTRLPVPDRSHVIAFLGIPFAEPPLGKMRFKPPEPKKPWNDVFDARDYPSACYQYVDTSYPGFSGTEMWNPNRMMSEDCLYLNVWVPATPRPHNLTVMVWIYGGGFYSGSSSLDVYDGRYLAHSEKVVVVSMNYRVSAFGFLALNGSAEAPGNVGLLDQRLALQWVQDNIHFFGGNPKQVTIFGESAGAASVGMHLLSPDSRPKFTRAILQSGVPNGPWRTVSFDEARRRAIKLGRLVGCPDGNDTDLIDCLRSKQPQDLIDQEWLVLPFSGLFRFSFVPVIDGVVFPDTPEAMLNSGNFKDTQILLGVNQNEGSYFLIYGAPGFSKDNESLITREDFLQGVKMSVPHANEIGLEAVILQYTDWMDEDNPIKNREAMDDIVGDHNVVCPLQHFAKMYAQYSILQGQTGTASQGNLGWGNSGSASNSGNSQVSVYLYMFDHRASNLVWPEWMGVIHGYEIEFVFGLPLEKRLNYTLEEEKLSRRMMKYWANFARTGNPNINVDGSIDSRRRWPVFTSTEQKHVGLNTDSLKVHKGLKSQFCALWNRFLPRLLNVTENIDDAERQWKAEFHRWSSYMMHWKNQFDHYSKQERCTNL
Chain of Carboxylic ester hydrolase (Q9N1N9 whole entry): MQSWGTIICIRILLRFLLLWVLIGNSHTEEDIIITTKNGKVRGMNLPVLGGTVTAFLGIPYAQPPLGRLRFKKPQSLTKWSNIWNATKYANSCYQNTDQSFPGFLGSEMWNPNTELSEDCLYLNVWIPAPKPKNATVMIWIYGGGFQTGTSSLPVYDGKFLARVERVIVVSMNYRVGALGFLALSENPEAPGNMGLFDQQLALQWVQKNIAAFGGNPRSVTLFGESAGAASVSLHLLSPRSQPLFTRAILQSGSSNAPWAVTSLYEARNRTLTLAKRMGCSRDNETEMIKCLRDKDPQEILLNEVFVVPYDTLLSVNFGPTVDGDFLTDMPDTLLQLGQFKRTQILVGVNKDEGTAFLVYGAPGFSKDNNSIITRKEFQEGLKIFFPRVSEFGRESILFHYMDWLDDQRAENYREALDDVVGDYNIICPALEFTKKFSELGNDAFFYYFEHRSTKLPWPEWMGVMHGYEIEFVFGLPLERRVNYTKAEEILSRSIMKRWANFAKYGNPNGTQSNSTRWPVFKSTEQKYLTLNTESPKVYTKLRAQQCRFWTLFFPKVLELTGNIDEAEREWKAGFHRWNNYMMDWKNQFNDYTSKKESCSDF

Compound | IC50 [1] [µM] | IC50 [2] [µM]
COc1cccc(NC(=O)Nc2nc(-c3cc4cccc(OC)c4oc3=O)cs2)c1 [1-(4-(8-Methoxy-2-oxo-2H-chromen-3-yl)thiazol-2-yl)-3-(3-methoxyphenyl)urea (e14)] | 83.8 | 56.5
O=C(Nc1cccc(Cl)c1)Nc1nc(-c2cc3ccccc3oc2=O)cs1 [1-(3-Chlorophenyl)-3-(4-(2-oxo-2H-chromen-3-yl)thiazol-2-yl)urea (e10)] | 111 | 66.6
COc1cccc2cc(-c3csc(NC(=O)Nc4ccccc4)n3)c(=O)oc12 [1-(4-(8-Methoxy-2-oxo-2H-chromen-3-yl)thiazol-2-yl)-3-phenylurea (e17)] | 84.1 | 77.5
O=C(Nc1cccc(F)c1)Nc1nc(-c2cc3ccccc3oc2=O)cs1 [1-(3-Fluorophenyl)-3-(4-(2-oxo-2H-chromen-3-yl)thiazol-2-yl)urea (e8)] | 58.1 | 62.2
O=C(Nc1ccc([N+](=O)[O-])cc1)Nc1nc(-c2cc3ccccc3oc2=O)cs1 [1-(4-Nitrophenyl)-3-(4-(2-oxo-2H-chromen-3-yl)thiazol-2-yl)urea (e6)] | 74.8 | 52.7
COc1cccc2cc(-c3csc(NC(=O)Nc4cccc(Cl)c4)n3)c(=O)oc12 [1-(4-(8-Methoxy-2-oxo-2H-chromen-3-yl)thiazol-2-yl)-3-(3-chlorophenyl)urea (e23)] | 105 | 62.9
COc1ccccc1NC(=O)Nc1nc(-c2cc3ccccc3oc2=O)cs1 [1-(2-Methoxyphenyl)-3-(4-(2-oxo-2H-chromen-3-yl)thiazol-2-yl)urea (e1)] | 38 | 30.3
O=C(Nc1ccc(Br)cc1)Nc1nc(-c2cc3ccccc3oc2=O)cs1 [1-(4-Bromophenyl)-3-(4-(2-oxo-2H-chromen-3-yl)thiazol-2-yl)urea (e12)] | 121 | 95.4
COc1cccc2cc(-c3csc(NC(=O)Nc4ccc(Cl)cc4)n3)c(=O)oc12 [1-(4-(8-Methoxy-2-oxo-2H-chromen-3-yl)thiazol-2-yl)-3-(4-chlorophenyl)urea (e24)] | 107 | 70.6
COc1ccc(NC(=O)Nc2nc(-c3cc4cccc(OC)c4oc3=O)cs2)cc1 [1-(4-(8-Methoxy-2-oxo-2H-chromen-3-yl)thiazol-2-yl)-3-(4-methoxyphenyl)urea (e15)] | 119 | 99.6
O=C(Nc1ccc(Cl)cc1)Nc1nc(-c2cc3ccccc3oc2=O)cs1 [1-(4-Chlorophenyl)-3-(4-(2-oxo-2H-chromen-3-yl)thiazol-2-yl)urea (e11)] | 38.1 | 88.4
COc1ccc(NC(=O)Nc2nc(-c3cc4ccccc4oc3=O)cs2)cc1 [1-(4-Methoxyphenyl)-3-(4-(2-oxo-2H-chromen-3-yl)thiazol-2-yl)urea (e3)] | 95.9 | 82.5
